This note sets out measurements from patent US20260125421A1, “ANTIVIRAL COMPOUNDS” (Hoffmann-La Roche Inc., priority 2022, published 2026).

Molecules are shown by their SMILES. pIC50: −log10 of the molar value.

Holding throughout (assay): biochemical
One test has as its target T1, SARS-CoV-2 3CL^pro (Severe acute respiratory syndrome coronavirus 2, UniProt P0DTD1).
T1 construct: […]; made in house; host or cells: Escherichia coli

A further test deals with T2, HCoV-229E 3CL^pro (Human coronavirus 229E, UniProt P0C6X1).
T2 construct: […]; made in house; host or cells: E. coli BL21 (DE3)

The target in a further test is MERS-CoV 3CL^pro (Middle East respiratory syndrome-related coronavirus, UniProt K9N7C7).
In the next test the target is SARS-CoV 3CL^pro (Severe acute respiratory syndrome coronavirus, UniProt P0C6X7).

T2 sequence (P0C6X1 2966-3267): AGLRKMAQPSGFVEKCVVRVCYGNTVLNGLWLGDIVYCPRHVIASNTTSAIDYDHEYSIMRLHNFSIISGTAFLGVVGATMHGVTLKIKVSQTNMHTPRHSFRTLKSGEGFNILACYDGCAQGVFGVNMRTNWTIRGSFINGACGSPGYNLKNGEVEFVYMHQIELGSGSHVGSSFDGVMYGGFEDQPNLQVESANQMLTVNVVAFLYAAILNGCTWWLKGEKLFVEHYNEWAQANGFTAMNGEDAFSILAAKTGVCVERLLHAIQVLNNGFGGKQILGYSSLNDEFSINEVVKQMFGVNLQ
Chain of MERS-CoV 3CL^pro (K9N7C7 3248-3553): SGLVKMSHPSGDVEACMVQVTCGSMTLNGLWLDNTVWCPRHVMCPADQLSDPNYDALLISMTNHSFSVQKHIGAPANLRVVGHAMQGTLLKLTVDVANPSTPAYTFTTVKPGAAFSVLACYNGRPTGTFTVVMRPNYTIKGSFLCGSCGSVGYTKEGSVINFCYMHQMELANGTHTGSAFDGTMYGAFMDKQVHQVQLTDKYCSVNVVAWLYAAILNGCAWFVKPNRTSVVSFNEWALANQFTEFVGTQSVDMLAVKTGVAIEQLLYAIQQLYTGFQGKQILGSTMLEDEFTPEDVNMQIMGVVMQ

In general, pIC50 refers to the IC50 on a negative log10 scale, so that one unit is a factor of ten. A low value points to a large IC50. Consider `CC1(C)CC(CN(NC(=O)[C@@H]2[C@H]3CCC[C@H]3CN2C(=O)[C@@H](NC(=O)[C@@H]2CC2(F)F)C(C)(C)C)C(=O)[C@H](F)Cl)C(=O)N1` (mixture of isomers) [Example 3, (1S)—N-[(1S)-1-[(3S,3aS,6aR)-3-[[[(2R)-2-chloro-2-fluoro-acetyl]-[rac-(5,5-dimethyl-2-oxo-pyrrolidin-3-yl)methyl]amino]carbamoyl]-3,3a,4,5,6,6a-hexahydro-1H-cyclopenta[c]pyrrole-2-carbonyl]-2,2-dimethyl-propyl]-2,2-difluoro-cyclopropanecarboxamide], for which the negative-log IC50 (pIC50) against SARS-CoV-2 3CL^pro was 7.64; on HCoV-229E 3CL^pro it was 5.60; against MERS-CoV 3CL^pro, 6.07; against SARS-CoV 3CL^pro, 7.55.
On to `CC[C@H](C)[C@H](NC(=O)C1(F)CC1)C(=O)N1C[C@H]2[C@@H]([C@H]1C(=O)NN(C[C@@H]1CC(C)(C)NC1=O)C(=O)[C@H](F)Cl)C2(C)C` [Example 1a, N-[(1S,2S)-1-[(1R,2S,5S)-2-[[[(2R)-2-chloro-2-fluoro-acetyl]-[[(3S)-5,5-dimethyl-2-oxo-pyrrolidin-3-yl]methyl]amino]carbamoyl]-6,6-dimethyl-3-azabicyclo[3.1.0]hexane-3-carbonyl]-2-methyl-butyl]-1-fluoro-cyclopropanecarboxamide], for which the pIC50 against SARS-CoV-2 3CL^pro was 7.32; against HCoV-229E 3CL^pro, 6.38; against MERS-CoV 3CL^pro it was 6.20; against SARS-CoV 3CL^pro it was 7.08.
Turning to `CC[C@H](C)[C@H](NC(=O)C1(F)CC1)C(=O)N1C[C@H]2[C@@H]([C@H]1C(=O)NN(C[C@H]1CC(C)(C)NC1=O)C(=O)[C@H](F)Cl)C2(C)C` [Example 1b, N-[(1S,2S)-1-[(1R,2S,5S)-2-[[[(2R)-2-chloro-2-fluoro-acetyl]-[[(3R)-5,5-dimethyl-2-oxo-pyrrolidin-3-yl]methyl]amino]carbamoyl]-6,6-dimethyl-3-azabicyclo[3.1.0]hexane-3-carbonyl]-2-methyl-butyl]-1-fluoro-cyclopropanecarboxamide], the negative logarithm of the IC50 (pIC50) on SARS-CoV-2 3CL^pro was 7.89; against HCoV-229E 3CL^pro, 6.88; at MERS-CoV 3CL^pro it was 6.63; on SARS-CoV 3CL^pro, 7.74.
`CC1(C)C[C@@H](CN(NC(=O)[C@@H]2[C@H]3CCC[C@H]3CN2C(=O)[C@@H](NC(=O)[C@@H]2CC2(F)F)C(C)(C)C)C(=O)[C@@H](F)Cl)C(=O)N1` [Example 2a, (1S)—N-[(1S)-1-[(3S,3aS,6aR)-3-[[[(2S)-2-chloro-2-fluoro-acetyl]-[[(3S)-5,5-dimethyl-2-oxo-pyrrolidin-3-yl]methyl]amino]carbamoyl]-3,3a,4,5,6,6a-hexahydro-1H-cyclopenta[c]pyrrole-2-carbonyl]-2,2-dimethyl-propyl]-2,2-difluoro-cyclopropanecarboxamide]: the pIC50 against SARS-CoV-2 3CL^pro is 7.54; at HCoV-229E 3CL^pro it was 5.11; on MERS-CoV 3CL^pro, 5.54; on SARS-CoV 3CL^pro, 7.19.
For the compound `CC1(C)C[C@H](CN(NC(=O)[C@@H]2[C@H]3CCC[C@H]3CN2C(=O)[C@@H](NC(=O)[C@@H]2CC2(F)F)C(C)(C)C)C(=O)[C@@H](F)Cl)C(=O)N1` [Example 2b, (1S)—N-[(1S)-1-[(3S,3aS,6aR)-3-[[[(2S)-2-chloro-2-fluoro-acetyl]-[[(3R)-5,5-dimethyl-2-oxo-pyrrolidin-3-yl]methyl]amino]carbamoyl]-3,3a,4,5,6,6a-hexahydro-1H-cyclopenta[c]pyrrole-2-carbonyl]-2,2-dimethyl-propyl]-2,2-difluoro-cyclopropanecarboxamide], the negative logarithm of the IC50 (pIC50) was 6.04 on SARS-CoV-2 3CL^pro, below 5.00 against HCoV-229E 3CL^pro, below 5.00 against MERS-CoV 3CL^pro and 5.76 against SARS-CoV 3CL^pro.
Turning to `CC1(C)C[C@@H](CN(NC(=O)[C@@H]2[C@H]3CCC[C@H]3CN2C(=O)[C@@H](NC(=O)[C@@H]2CC2(F)F)C(C)(C)C)C(=O)[C@H](F)Cl)C(=O)N1` [Example 4, (1S)-N-[(1S)-1-[(3S,3aS,6aR)-3-[[[(2R)-2-chloro-2-fluoro-acetyl]-[[(3S)-5,5-dimethyl-2-oxo-pyrrolidin-3-yl]methyl]amino]carbamoyl]-3,3a,4,5,6,6a-hexahydro-1H-cyclopenta[c]pyrrole-2-carbonyl]-2,2-dimethyl-propyl]-2,2-difluoro-cyclopropanecarboxamide], the negative logarithm of the IC50 (pIC50) against SARS-CoV-2 3CL^pro was 7.96; on HCoV-229E 3CL^pro, 6.08; at MERS-CoV 3CL^pro, 6.29; against SARS-CoV 3CL^pro, 7.82.
On the same counts, the results for `CC1(C)C[C@H](CN(NC(=O)[C@@H]2[C@H]3CCC[C@H]3CN2C(=O)[C@@H](NC(=O)[C@@H]2CC2(F)F)C(C)(C)C)C(=O)[C@H](F)Cl)C(=O)N1` [Example 5, (1S)-N-[(1S)-1-[(3S,3aS,6aR)-3-[[[(2R)-2-chloro-2-fluoro-acetyl]-[[(3R)-5,5-dimethyl-2-oxo-pyrrolidin-3-yl]methyl]amino]carbamoyl]-3,3a,4,5,6,6a-hexahydro-1H-cyclopenta[c]pyrrole-2-carbonyl]-2,2-dimethyl-propyl]-2,2-difluoro-cyclopropanecarboxamide] are 7.09, 5.39, 5.91 and 6.86.
On the same counts, the results for `CC1(C)C[C@@H](CN(NC(=O)[C@@H]2[C@H]3CCC[C@H]3CN2C(=O)[C@@H](NC(=O)C(F)F)C(C)(C)C)C(=O)[C@@H](F)Cl)C(=O)N1` [Example 6, N-[(1S)-1-[(3S,3aS,6aR)-3-[[[(2S)-2-chloro-2-fluoro-acetyl]-[[(3S)-5,5-dimethyl-2-oxo-pyrrolidin-3-yl]methyl]amino]carbamoyl]-3,3a,4,5,6,6a-hexahydro-1H-cyclopenta[c]pyrrole-2-carbonyl]-2,2-dimethyl-propyl]-2,2-difluoro-acetamide] are 7.52, below 5.00, 5.53 and 7.39.
On to `CCC(CC)[C@H](NC(=O)C(F)F)C(=O)N1C[C@@H]2CCC[C@@H]2[C@H]1C(=O)NN(C[C@@H]1CC(C)(C)NC1=O)C(=O)[C@H](F)Cl` [Example 7, N-[(1S)-1-[(3S,3aS,6aR)-3-[[[(2R)-2-chloro-2-fluoro-acetyl]-[[(3S)-5,5-dimethyl-2-oxo-pyrrolidin-3-yl]methyl]amino]carbamoyl]-3,3a,4,5,6,6a-hexahydro-1H-cyclopenta[c]pyrrole-2-carbonyl]-2-ethyl-butyl]-2,2-difluoro-acetamide], for which the pIC50 against SARS-CoV-2 3CL^pro was 8.15; on HCoV-229E 3CL^pro, 6.89; against MERS-CoV 3CL^pro, 6.79; against SARS-CoV 3CL^pro, 8.05.
As for `CCC(CC)[C@H](NC(=O)C(F)F)C(=O)N1C[C@@H]2CCC[C@@H]2[C@H]1C(=O)NN(C[C@H]1CC(C)(C)NC1=O)C(=O)[C@H](F)Cl` [Example 8], the pIC50 is 6.89 at SARS-CoV-2 3CL^pro, 5.17 against HCoV-229E 3CL^pro, 5.52 against MERS-CoV 3CL^pro and 6.59 at SARS-CoV 3CL^pro.
`CCC(CC)[C@H](NC(=O)[C@H](F)Cl)C(=O)N1C[C@@H]2CCC[C@@H]2[C@H]1C(=O)NN(C[C@@H]1CC(C)(C)NC1=O)C(=O)[C@H](F)Cl` [Example 9, (2R)-N-[(1S)-1-[(3S,3aS,6aR)-3-[[[(2R)-2-chloro-2-fluoro-acetyl]-[[(3S)-5,5-dimethyl-2-oxo-pyrrolidin-3-yl]methyl]amino]carbamoyl]-3,3a,4,5,6,6a-hexahydro-1H-cyclopenta[c]pyrrole-2-carbonyl]-2-ethyl-butyl]-2-chloro-2-fluoro-acetamide]: the pIC50 is 8.15 at SARS-CoV-2 3CL^pro, 6.62 on HCoV-229E 3CL^pro, 6.60 against MERS-CoV 3CL^pro and 8.15 on SARS-CoV 3CL^pro.
On to `CC1(C)C[C@H](CN(NC(=O)[C@@H]2[C@H]3CCC[C@H]3CN2C(=O)[C@@H](NC(=O)C(F)F)C(C)(C)C)C(=O)[C@H](F)Cl)C(=O)N1` [Example 10, N-[(1S)-1-[(3S,3aS,6aR)-3-[[[(2R)-2-chloro-2-fluoro-acetyl]-[[(3R)-5,5-dimethyl-2-oxo-pyrrolidin-3-yl]methyl]amino]carbamoyl]-3,3a,4,5,6,6a-hexahydro-1H-cyclopenta[c]pyrrole-2-carbonyl]-2,2-dimethyl-propyl]-2,2-difluoro-acetamide], for which the pIC50 was 7.51 at SARS-CoV-2 3CL^pro, 5.52 on HCoV-229E 3CL^pro, 6.10 at MERS-CoV 3CL^pro and 7.28 on SARS-CoV 3CL^pro.
In the case of `CC1(C)C[C@@H](CN(NC(=O)[C@@H]2[C@H]3CCC[C@H]3CN2C(=O)[C@@H](NC(=O)C(F)F)C(C)(C)C)C(=O)[C@H](F)Cl)C(=O)N1` [Example 11, N-[(1S)-1-[(3S,3aS,6aR)-3-[[[(2R)-2-chloro-2-fluoro-acetyl]-[[(3S)-5,5-dimethyl-2-oxo-pyrrolidin-3-yl]methyl]amino]carbamoyl]-3,3a,4,5,6,6a-hexahydro-1H-cyclopenta[c]pyrrole-2-carbonyl]-2,2-dimethyl-propyl]-2,2-difluoro-acetamide], the negative-log IC50 (pIC50) was 8.05 against SARS-CoV-2 3CL^pro, 5.77 at HCoV-229E 3CL^pro, 6.04 on MERS-CoV 3CL^pro and 7.85 against SARS-CoV 3CL^pro.
Take `CCC(CC)[C@H](NC(=O)C(F)F)C(=O)N1C[C@@H]2CCC[C@@H]2[C@H]1C(=O)NN(C[C@@H]1CC(C)(C)NC1=O)C(=O)[C@@H](F)Cl` [Example 12, N-[(1S)-1-[(3S,3aS,6aR)-3-[[[(2S)-2-chloro-2-fluoro-acetyl]-[[(3S)-5,5-dimethyl-2-oxo-pyrrolidin-3-yl]methyl]amino]carbamoyl]-3,3a,4,5,6,6a-hexahydro-1H-cyclopenta[c]pyrrole-2-carbonyl]-2-ethyl-butyl]-2,2-difluoro-acetamide]: the pIC50 against SARS-CoV-2 3CL^pro is 8.05; at HCoV-229E 3CL^pro it was 5.90; at MERS-CoV 3CL^pro, 6.26; at SARS-CoV 3CL^pro it was 7.89.
